The assay has as its system 156681-154-R-J1-PDC complex spheroid viability. Description: Anticancer human tumor 156681-154-R-J1-PDC patient-derived melanoma cell line growth inhibition [CLK]. As to conditions: for viability, T/C: stronger effect = lower value. The essentials:
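Multi-cell-type spheroids combined patient-derived tumor cells with HUVEC endothelial cells and human mesenchymal stem cells. Paired agents were dosed in half-log steps down from about clinical Cmax, or from 10 microM where Cmax was unknown.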

The mark [1] stands for this setting: curve of first compound, second compound 0.0316 µM.
The mark [2] stands for this setting: curve of first compound, second compound 0.1 µM.
The mark [3] stands for this setting: curve of first compound, second compound 0.316 µM.
[4] abbreviates: curve of first compound, second compound 1 µM.
The mark [5] stands for this setting: curve of first compound, second compound 3.16 µM.
Where [6] appears, read: curve of first compound, second compound 10 µM.
[7] abbreviates: second compound 0.0316 µM, first compound 0.0316 µM.
[8] abbreviates: second compound 0.0316 µM, first compound 0.1 µM.
Setting [9] is: second compound 0.0316 µM, first compound 0.316 µM.
The mark [10] stands for this setting: second compound 0.0316 µM, first compound 1 µM.
[11] abbreviates: second compound 0.0316 µM, first compound 3.16 µM.
Where [12] appears, read: second compound 0.0316 µM, first compound 10 µM.
Setting [13] is: second compound 0.1 µM, first compound 0.0316 µM.
Where [14] appears, read: second compound 0.1 µM, first compound 0.1 µM.
Where [15] appears, read: second compound 0.1 µM, first compound 0.316 µM.
The mark [16] stands for this setting: second compound 0.1 µM, first compound 1 µM.
The mark [17] stands for this setting: second compound 0.1 µM, first compound 3.16 µM.
Where [18] appears, read: second compound 0.1 µM, first compound 10 µM.
The mark [19] stands for this setting: second compound 0.316 µM, first compound 0.0316 µM.
Setting [20] is: second compound 0.316 µM, first compound 0.1 µM.
[21] abbreviates: second compound 0.316 µM, first compound 0.316 µM.
[22] abbreviates: second compound 0.316 µM, first compound 1 µM.
Setting [23] is: second compound 0.316 µM, first compound 3.16 µM.
[24] abbreviates: second compound 0.316 µM, first compound 10 µM.
The mark [25] stands for this setting: second compound 1 µM, first compound 0.0316 µM.
[26] abbreviates: second compound 1 µM, first compound 0.1 µM.
[27] abbreviates: second compound 1 µM, first compound 0.316 µM.
Where [28] appears, read: second compound 1 µM, first compound 1 µM.
Where [29] appears, read: second compound 1 µM, first compound 3.16 µM.
Where [30] appears, read: second compound 1 µM, first compound 10 µM.
[31] abbreviates: second compound 3.16 µM, first compound 0.0316 µM.
Where [32] appears, read: second compound 3.16 µM, first compound 0.1 µM.
Setting [33] is: second compound 3.16 µM, first compound 0.316 µM.
The mark [34] stands for this setting: second compound 3.16 µM, first compound 1 µM.
The mark [35] stands for this setting: second compound 3.16 µM, first compound 3.16 µM.
[36] abbreviates: second compound 3.16 µM, first compound 10 µM.
The mark [37] stands for this setting: second compound 10 µM, first compound 0.0316 µM.
Where [38] appears, read: second compound 10 µM, first compound 0.1 µM.
The mark [39] stands for this setting: second compound 10 µM, first compound 0.316 µM.
The mark [40] stands for this setting: second compound 10 µM, first compound 1 µM.
Where [41] appears, read: second compound 10 µM, first compound 3.16 µM.
Where [42] appears, read: second compound 10 µM, first compound 10 µM.

Where “and” joins values, the source holds several entries; their conditions need not be identical. Identical values can stand only once.
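Note: spheroids exposed to the agents for seven days.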
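Throughout, for viability, T/C: 100% = DMSO vehicle control viability.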

What is called IC50 is the concentration needed to halve the response being measured. As usually defined, the viability, T/C is the ratio of treated to control. In the case of `O=C(c1cc(Cc2n[nH]c(=O)c3ccccc23)ccc1F)N1CCN(C(=O)C2CC2)CC1` + CNC(=O)c1ccc(Nc2nc(OC3CCCC3)c3c(-c4ccc5nc(C)oc5c4)c[nH]c3n2)c(OC)c1, the IC50 runs as follows: under setting [1], more than 10000 nM; under setting [2], more than 10000 nM; under setting [3], more than 10000 nM; under setting [4], 481 nM; under setting [5], less than 31.6 nM; under setting [6], less than 31.6 nM. In addition, the viability, T/C runs as follows: under setting [7], 98.2%; under setting [8], 108%; under setting [9], 92.3%; under setting [10], 103%; under setting [11], 92.5%; under setting [12], 79.3%. Besides, the viability, T/C reads like this: under setting [13], 65.4%; under setting [14], 72.5%; under setting [15], 65.4%; under setting [16], 80.9%; under setting [17], 82.8%; under setting [18], 60.5%. For the same compound, the viability, T/C runs as follows: under setting [19], 78.9%; under setting [20], 69.3%; under setting [21], 76.3%; under setting [22], 71%; under setting [23], 70.3%; under setting [24], 54.3%. For the same compound, the viability, T/C under setting [25] was 59.7%; the viability, T/C under setting [26] is 48.5%; the viability, T/C under setting [27] was 48.9%; the viability, T/C under setting [28] is 47.9%; the viability, T/C under setting [29] was 42.8%; the viability, T/C under setting [30] was 25.8%. The viability, T/C by setting is: under setting [31], 47.8%; under setting [32], 48.2%; under setting [33], 47.9%; under setting [34], 45.2%; under setting [35], 35.2%; under setting [36], 20.2%. Also, the viability, T/C reads like this: under setting [37], 50.6%; under setting [38], 37%; under setting [39], 38.6%; under setting [40], 43.1%; under setting [41], 27.5%; under setting [42], 15.6%.

On to `CC(Nc1ccc2c(c1)OCCn1cc(N3C(=O)OCC3C(F)F)nc1-2)C(N)=O` (configuration not stated) + CN1CCN(c2cc(C(=O)Nc3cc4cc(-c5cnn(C)c5)ccc4cn3)ccn2)CC1, for which the IC50 is 302 nM under setting [1]; 241 nM under setting [2]; less than 31.6 nM under setting [3]; less than 31.6 nM under setting [4]; less than 31.6 nM under setting [5]; less than 31.6 nM under setting [6]. The viability, T/C is, setting by setting: under setting [7], 85.4%; under setting [8], 67%; under setting [9], 49.4%; under setting [10], 34%; under setting [11], 30%; under setting [12], 20%. Further, the viability, T/C by setting is: under setting [13], 73.4%; under setting [14], 65.6%; under setting [15], 43.5%; under setting [16], 29.9%; under setting [17], 20%; under setting [18], 13.7%. In addition, the viability, T/C runs as follows: under setting [19], 21.1%; under setting [20], 15.7%; under setting [21], 15%; under setting [22], 6.71%; under setting [23], 4.44%; under setting [24], 4.8%. Also, the viability, T/C is, setting by setting: under setting [25], 0.14%; under setting [26], 0.42%; under setting [27], 0.1%; under setting [28], 0.05%; under setting [29], 0.4%; under setting [30], 0.2%. Also, the viability, T/C under setting [31] was 0.05%; the viability, T/C under setting [32] is 1.73%; the viability, T/C under setting [33] is 2.06%; the viability, T/C under setting [34] is 0.08%; the viability, T/C under setting [35] is 1.56%; the viability, T/C under setting [36] is 1.84%. Moreover, the viability, T/C runs as follows: under setting [37], 0.11%; under setting [38], 0.1%; under setting [39], 1.26%; under setting [40], 2.64%; under setting [41], 2.45%; under setting [42], 1.35%.

`COc1c(OCCCN2CCOCC2)ccc2c3n(c(=NC(=O)c4cnc(N)nc4)nc12)CCN3`: the viability, T/C runs as follows: (compound 0.00316 µM) 73.2% and 68.2%; (compound 0.01 µM) 69.9% and 67.5%; (compound 0.0316 µM) 45.8% and 39.1%; (compound 0.1 µM) 19.1% and 13.5%; (compound 0.316 µM) 3.62% and 2.73%; (compound 1 µM) 1.16% and 0.46%. Further, the IC50 (curve of compound) is 27 nM and 20.3 nM.

Regarding `CCCS(=O)(=O)Nc1ccc(F)c(C(=O)c2c[nH]c3ncc(-c4ccc(Cl)cc4)cc23)c1F` + CN1CCN(c2cc(C(=O)Nc3cc4cc(-c5cnn(C)c5)ccc4cn3)ccn2)CC1, the IC50 is, setting by setting: under setting [1], 6050 nM; under setting [2], 4960 nM; under setting [3], less than 31.6 nM; under setting [4], less than 31.6 nM; under setting [5], less than 31.6 nM; under setting [6], less than 31.6 nM. For the same compound, the viability, T/C is 95.2% under setting [7]; 88.7% under setting [8]; 104% under setting [9]; 94.7% under setting [10]; 99.7% under setting [11]; 13.9% under setting [12]. In addition, the viability, T/C is 88.3% under setting [13]; 80.8% under setting [14]; 76.7% under setting [15]; 85% under setting [16]; 74.8% under setting [17]; 11.3% under setting [18]. For the same compound, the viability, T/C runs as follows: under setting [19], 25.4%; under setting [20], 19.6%; under setting [21], 28.6%; under setting [22], 29.9%; under setting [23], 24.9%; under setting [24], 3.74%. Moreover, the viability, T/C by setting is: under setting [25], 0.19%; under setting [26], 0.44%; under setting [27], 0.19%; under setting [28], 0.14%; under setting [29], 0.12%; under setting [30], 0.13%. Also, the viability, T/C is, setting by setting: under setting [31], 0.3%; under setting [32], 0.48%; under setting [33], 0.11%; under setting [34], 0.27%; under setting [35], 3.96%; under setting [36], 0.11%. Further, the viability, T/C runs as follows: under setting [37], 0.13%; under setting [38], 1.59%; under setting [39], 0.27%; under setting [40], 0.21%; under setting [41], 3.86%; under setting [42], 0.17%.

In the case of `CNC(=O)c1ccc(Nc2nc(OC3CCCC3)c3c(-c4ccc5nc(C)oc5c4)c[nH]c3n2)c(OC)c1`, the viability, T/C reads like this: (compound 0.0316 µM) 105% [middle of 12 runs]; (compound 0.1 µM) 63% [middle of 12 runs]; (compound 0.316 µM) 54.3% [middle of 12 runs]; (compound 1 µM) 36.4% [middle of 11 runs]; (compound 3.16 µM) 42.1% [middle of 12 runs].

As for `NC(=O)C(=Cn1cnc(-c2cc(C(F)(F)F)cc(C(F)(F)F)c2)n1)c1cncnc1`, the viability, T/C (compound 0.00949 µM) was 79.6% and 73.7%; the viability, T/C (compound 0.03 µM) is 67.2% and 49.7%; the viability, T/C (compound 0.0949 µM) is 46.6% and 36.5%; the viability, T/C (compound 0.3 µM) is 14.8% and 11.8%; the viability, T/C (compound 0.949 µM) is 6.97% and 7.35%; the viability, T/C (compound 3 µM) was 4.72% and 4.92%. For the same compound, for the setting “curve of compound”, the IC50 is 73.9 nM and 34.7 nM.

As for `C#Cc1c(F)ccc2cc(O)cc(-c3ncc4c(N5CC6CCC(C5)N6)nc(OCC56CCCN5CC(F)C6)nc4c3F)c12` (configuration not stated), the viability, T/C runs as follows: (compound 0.0316 µM) 110% and 91.8%; (compound 0.1 µM) 86.9% and 94%; (compound 0.316 µM) 79.3% and 89.4%; (compound 1 µM) 89.2% and 83.5%; (compound 3.16 µM) 109% and 96.9%; (compound 10 µM) 99.2% and 101%. The IC50 (curve of compound) was more than 10000 nM.

Source of the values: PubChem BioAssay AID2060627 (Molecular Pharmacology Branch, DTP, NCI, 2025).
